Reference: patent US8697441B2, “Method of inducing high activity of human adipose stem cell and medium therefor” (Seoul National University Hospital, priority 2009, dated 2014)

How the values were obtained:
human adipose stem cells [1] = test: Culturing of adipose stem cells in medium containing glycerol, cell counting; format: cell-based
Description: Through experiments to elucidate the mechanism of improved growth ability observed in coculturing with adipocytes, The present inventors have confirmed that the fat metabolite glycerol is one of the important factors and found out that the growth ability and differentiation efficiency can be enhanced only with glycerol, without adipocytes. […] […] […] In addition, the degree of DNA polymerization was evaluated by BrdU assay in order to further investigate the ability of cell growth and differentiation.

human adipose stem cells [2] = test: Growth ability (BrdU assay); format: cell-based; conditions: FIG. 6b
Description: 1. Growth Ability (BrdU Assay) DNA polymerization occurring during cell growth was quantitated using BrdU. The same number of isolated human adipose stem cells (2×10^4 cells each) were cultured in a culture dish in α-MEM containing 10-100 μM glycerol and 10% FBS. […] In addition, the degree of DNA polymerization was evaluated by BrdU assay in order to further investigate the ability of cell growth and differentiation.

AKT = test: Analysis of activation mechanism: degree of AKT activation (pAKT/tAKT); format: cell-based, human; conditions: FIG. 7; decreased again by inhibition of aquaporins (AQ1 and AQ9)
Description: Then, protein was extracted from the cells of each group and the degree of AKT activation, which is a measure of cell activity, was measured. […] The degree of AKT activation is evaluated from the ratio of phosphorylated AKT (pAKT) to total AKT (tAKT). The total AKT was normalized with β-actin which is normally expressed in cells.

[3] = test system: human adipose stem cells cocultured with HUVECs; test: Matrigel tube formation assay after coculturing with HUVECs; format: cell-based; conditions: FIG. 8; adipose stem cells exposed to glycerol vs not exposed
Description: 3. Tube Formation Assay Vascular tube formation ability was observed after coculturing the cells with human umbilical vein endothelial cells (HUVECs). Differentiation potency was evaluated by Matrigel tube formation assay, which is widely used to compare formation of capillary-like structures in vitro, after coculturing human adipose stem cells with HUVECs.

`OCC(O)CO` [glycerol] was tested, and the “most effective glycerol concentration” value (human adipose stem cells [1]; FIG. 6, cell number, BrdU, morphology) was 10 µM, the cell number (human adipose stem cells [1]; FIG. 6a, adipose stem cells cultured in medium containing glycerol, by glycerol concentration) was “increased in a glycerol concentration-dependent manner” and the “cell number versus control groups” value (human adipose stem cells [1]; G10 (10 μM glycerol), α-MEM with 10% FBS, 2×10^4 cells seeded, FIG. 6a) was “showed a cell number larger than those of the negative control group “control” and the positive control group “bFGF (4 ng/mL)””. The cytotoxicity (human adipose stem cells [1]; glycerol concentration 500 μM) was “cytotoxicity was observed”, the “BrdU incorporation owing to cell division” value (human adipose stem cells [2]; with glycerol concentration) was “increased BrdU incorporation” and the “DNA synthesis (BrdU assay)” value (human adipose stem cells [2]; group G1) was “showed active DNA synthesis”. For the same molecule, the “DNA synthesis (BrdU assay)” value (human adipose stem cells [2]; group G10 (10 μM glycerol)) was “showed active DNA synthesis”, the AKT activity (AKT) was “increased AKT activity” and the “vascular tube formation ability” value [3] was “increased vascular structures and densities”.
